Assay results: ChEMBL document CHEMBL3400006, “Improving the passive permeability of macrocyclic peptides: Balancing permeability with other physicochemical properties” (Bioorg Med Chem, 2015)
Values after ≈ are worked out from the molar mass of the structure shown. Square brackets hold non-standard residues; d marks the D form. Peptide text beside a SMILES is read from it. 2Pal = N[C@@H](Cc1ccccn1)C(=O)O; 4Pal = N[C@@H](Cc1ccncc1)C(=O)O

Assays:
[1] = Lipophilicity, log D of the compound at pH 7.4 by ChromlogD analysis; type: physicochemical; details: buffer
[2] = Solubility of the compound in phosphate buffer at pH 7.4 by chemi-luminescent nitrogen detection method; type: physicochemical
[3] = Permeability of the compound at donor pH 7.4 and acceptor pH 7.4 after 3 hrs incubation by PAMPA analysis; type: ADME; details: read-out: permeability

chromatographic logD [1] | solubility [2] [µM] | Papp at 3 h [3] [×10⁻⁶ cm/s] | Structure (SMILES)
6.56 | 78 (≈ 56.7 µg/mL) | 35 | CC(C)C[C@@H]1NC(=O)[C@H](Cc2ccc(O)cc2)NC(=O)[C@@H]2CCCN2C(=O)[C@H](CC(C)C)NC(=O)[C@](C)(CC(C)C)NC(=O)[C@@H](CC(C)C)NC1=O
6.11 | 148 (≈ 108 µg/mL) | 17 | CC(C)C[C@@H]1NC(=O)[C@@H](CC(C)C)NC(=O)[C@](C)(CC(C)C)NC(=O)[C@H](Cc2ccc(O)cc2)NC(=O)[C@@H]2CCCN2C(=O)[C@H](CC(C)C)NC1=O
6.65 | 102 (≈ 86.1 µg/mL) | 30.3 | CC(C)C[C@@H]1NC(=O)[C@@H](CC(C)C)NC(=O)[C@H](CC(C)C)NC(=O)[C@@](C)(CC(C)C)NC(=O)[C@H](Cc2ccc(O)cc2)NC(=O)[C@@H]2CCCN2C(=O)[C@H](CC(C)C)NC1=O
6.88 | 122 (≈ 103 µg/mL) | 18.5 | CC(C)C[C@@H]1NC(=O)[C@@H](CC(C)C)NC(=O)[C@H](Cc2ccc(O)cc2)NC(=O)[C@@H]2CCCN2C(=O)[C@H](CC(C)C)NC(=O)[C@](C)(CC(C)C)NC(=O)[C@@H](CC(C)C)NC1=O
7.21 | 28.5 (≈ 23.9 µg/mL) | 30 | CC(C)C[C@@H]1NC(=O)[C@@H](CC(C)C)NC(=O)[C@H](CC(C)C)NC(=O)[C@@](C)(CC(C)C)NC(=O)[C@@H](Cc2ccc(O)cc2)NC(=O)[C@@H]2CCCN2C(=O)[C@H](CC(C)C)NC1=O

Further lines, the compound ahead of its results:

Structure (SMILES) | chromatographic logD [1] | solubility [2] [µM] | Papp at 3 h [3] [×10⁻⁶ cm/s]
CC(C)C[C@@H]1NC(=O)[C@H](Cc2ccc(O)cc2)NC(=O)[C@@H]2CCCN2C(=O)[C@H](CC(C)C)NC(=O)[C@H](CC(C)C)NC(=O)[C@@H](CC(C)C)NC1=O | 5.53 | 170 (≈ 121 µg/mL) | –
CC(C)C[C@@H]1NC(=O)[C@@H](CC(C)C)NC(=O)[C@@H](CC(C)C)NC(=O)[C@H](Cc2ccc(O)cc2)NC(=O)[C@H]2CCCN2C(=O)[C@@H](CC(C)C)NC1=O | 5.57 | 248 (≈ 177 µg/mL) | –
CC(C)C[C@@H]1NC(=O)[C@@H](CC(C)C)N(C)C(=O)[C@H](CC(C)C)NC(=O)[C@H](Cc2ccc(O)cc2)NC(=O)[C@@H]2CCCN2C(=O)[C@H](CC(C)C)NC1=O | 6.19 | 192 (≈ 140 µg/mL) | 14.4
CC(C)C[C@@H]1NC(=O)[C@H](Cc2ccc(O)cc2)NC(=O)[C@@H]2CCCN2C(=O)[C@H](CC(C)C)NC(=O)[C@H](CC(C)C)N(C)C(=O)[C@@H](CC(C)C)N(C)C1=O | 7.52 | 103 (≈ 76.3 µg/mL) | 34.7
CC(C)C[C@@H]1NC(=O)[C@H](Cc2ccc(O)cc2)N(C)C(=O)[C@@H]2CCCN2C(=O)[C@H](CC(C)C)NC(=O)[C@H](CC(C)C)N(C)C(=O)[C@@H](CC(C)C)N(C)C1=O | 8.32 | 53.7 (≈ 40.5 µg/mL) | –
CC(C)C[C@@H]1NC(=O)[C@@H](CC(C)C)NC(=O)[C@H](CC(C)C)NC(=O)[C@@H](CC(C)C)NC(=O)[C@H](Cc2ccc(O)cc2)NC(=O)[C@@H]2CCCN2C(=O)[C@H](CC(C)C)NC1=O | 5.98 | 51.7 (≈ 42.7 µg/mL) | 13
CC(C)C[C@@H]1NC(=O)[C@@H](CC(C)C)NC(=O)[C@H]([C@@H](C)O)NC(=O)[C@H](Cc2ccc(O)cc2)NC(=O)[C@@H]2CCCN2C(=O)[C@H](CC(C)C)NC1=O | 4.65 | 372 (≈ 261 µg/mL) | < 0.65
CC(C)C[C@@H]1NC(=O)[C@@H](CC(C)C)NC(=O)[C@@H]([C@H](C)O)NC(=O)[C@H](Cc2ccc(O)cc2)NC(=O)[C@@H]2CCCN2C(=O)[C@H](CC(C)C)NC1=O | 4.2 | 371 (≈ 260 µg/mL) | 1.05
CC(C)C[C@@H]1NC(=O)[C@H](CC(C)C)NC(=O)[C@@H](CC(C)C)NC(=O)[C@H](Cc2ccc(O)cc2)NC(=O)[C@@H]2CCCN2C(=O)[C@H](CC(C)C)NC1=O | 5.07 | 324 (≈ 231 µg/mL) | –
CC(C)C[C@@H]1NC(=O)[C@H](Cc2ccc(O)cc2)NC(=O)[C@@H]2CCCN2C(=O)[C@H](CC(C)C)NC(=O)[C@H](CC(C)C)NC(=O)[C@H](Cc2ccccc2)NC1=O (cyclo(FLLPYL)) | 6.05 | 206 (≈ 153 µg/mL) | 20
CC(C)C[C@@H]1NC(=O)[C@H](Cc2ccc(O)cc2)NC(=O)[C@@H]2CCCN2C(=O)[C@H](CC(C)C)NC(=O)[C@H](CC(C)C)NC(=O)[C@H](Cc2ccccn2)NC1=O (cyclo([2Pal]LLPYL)) | 4.75 | 485 (≈ 363 µg/mL) | 1.35
CC(C)C[C@@H]1NC(=O)[C@H](Cc2ccc(O)cc2)NC(=O)[C@@H]2CCCN2C(=O)[C@H](CC(C)C)NC(=O)[C@H](CC(C)C)NC(=O)[C@H](Cc2ccncc2)NC1=O (cyclo([4Pal]LLPYL)) | 4.45 | 451 (≈ 337 µg/mL) | < 0.65
